Experimental data published in ChEMBL document CHEMBL1201862, “PubChem BioAssay data set” (2004).
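Method: 48-hour compound exposure of cells in 96-well plates, five concentrations, linear interpolation of endpoints. GI50 is the concentration that inhibits growth by half.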 Activity calls are given as the source filed them. No stated cut-off is given here; in the data, active = GI50 up to about 1.1 µM and inactive = higher.

Assays:
Assay in all cases: NCI-60 cell line screen, 48 h
HOP-92 = system: HOP-92
MCF7 = system: MCF7
SNB-19 = system: SNB-19
SW-620 = system: SW-620
HT-29 = system: HT-29
A549 = system: A549
CAKI-1 = system: CAKI-1
OVCAR-3 = system: OVCAR-3
SF-295 = system: SF-295
SR = system: SR
UACC-62 = system: UACC-62
BT-549 = system: BT-549
A498 = system: A498
COLO 205 = system: COLO 205
SF-268 = system: SF-268
MOLT-4 = system: MOLT-4
CCRF-CEM = system: CCRF-CEM
EKVX = system: EKVX
LOX IMVI = system: LOX IMVI
MDA-MB-231 = system: MDA-MB-231

Structure (SMILES)	GI50 (HOP-92)	GI50 (MCF7)	GI50 (SNB-19)	GI50 (SW-620)	GI50 (HT-29)	GI50 (A549)	GI50 (CAKI-1)	GI50 (OVCAR-3)	GI50 (SF-295)	GI50 (SR)	GI50 (UACC-62)	GI50 (BT-549)	GI50 (A498)	GI50 (COLO 205)	GI50 (SF-268)	GI50 (MOLT-4)	GI50 (CCRF-CEM)	GI50 (EKVX)	GI50 (LOX IMVI)	GI50 (MDA-MB-231)
C/C(=N\O)c1cccc[n+]1Cc1ccccc1	> 100 µM (inactive)	> 100 µM (inactive)	> 100 µM (inactive)	> 100 µM (inactive)	> 100 µM (inactive)	> 100 µM (inactive)	> 100 µM (inactive)	> 100 µM (inactive)	> 100 µM (inactive)	> 100 µM (inactive)	> 100 µM (inactive)	> 100 µM (inactive)	> 100 µM (inactive)	> 100 µM (inactive)	> 100 µM (inactive)	> 100 µM (inactive)	> 100 µM (inactive)	> 100 µM (inactive)	> 100 µM (inactive)	> 100 µM (inactive)
CC1(C)[C@H]2Cc3cc(-c4cc5c(cn4)[C@@H]4C[C@H]([C@@H]5[C@@H]5c6cc(-c7cc8c(cn7)[C@@H]7C[C@H](C8)C7(C)C)ncc6[C@@H]6C[C@H]5C6(C)C)C4(C)C)ncc3[C@@H]1C2	> 100 µM (inactive)	> 100 µM (inactive)	> 100 µM (inactive)	> 100 µM (inactive)	> 100 µM (inactive)	> 100 µM (inactive)	> 100 µM (inactive)	> 100 µM (inactive)	> 100 µM (inactive)	> 100 µM (inactive)	> 100 µM (inactive)	> 100 µM (inactive)	> 100 µM (inactive)	> 100 µM (inactive)	> 100 µM (inactive)	> 100 µM (inactive)	> 100 µM (inactive)	> 100 µM (inactive)	> 100 µM (inactive)	> 100 µM (inactive)
COc1cc(/C=C2\C[C@H]3[C@@H]4CCC5=CC(=O)CC[C@]5(C)[C@H]4CC[C@]3(C)C2=O)cc(OC)c1OC	13.1 µM (inactive)	3.56 µM (inactive)	30.3 µM (inactive)	8.61 µM (inactive)	5.82 µM (inactive)	4.15 µM (inactive)	5.37 µM (inactive)	4.49 µM (inactive)	5.93 µM (inactive)	3.04 µM (inactive)	4.35 µM (inactive)	3.29 µM (inactive)	17.7 µM (inactive)	4.32 µM (inactive)	57.3 µM (inactive)	2.13 µM (inactive)	4.76 µM (inactive)	15.6 µM (inactive)	7.94 µM (inactive)	7.74 µM (inactive)
CC(C)[Si]1(C(C)C)OCC2OC(n3ccc(=O)[nH]c3=O)C([Se]c3ccccc3)C2O[Si](C(C)C)(C(C)C)O1 (centres undefined)	3.5 µM (inactive)	2.75 µM (inactive)	0.261 µM (active)	2.32 µM (inactive)	1.66 µM (inactive)	9.46 µM (inactive)	11.5 µM (inactive)	4.52 µM (inactive)	5.9 µM (inactive)	3.72 µM (inactive)	4.71 µM (inactive)	11.6 µM (inactive)	7.87 µM (inactive)	4.86 µM (inactive)	2.93 µM (inactive)	7.38 µM (inactive)	8.91 µM (inactive)	4.93 µM (inactive)	0.769 µM (active)	2.83 µM (inactive)
CS(=O)(=O)Nc1ccc2c(c1)oc(=O)c1ccccc12	> 100 µM (inactive)	> 100 µM (inactive)	> 100 µM (inactive)	> 100 µM (inactive)	> 100 µM (inactive)	> 100 µM (inactive)	> 100 µM (inactive)	> 100 µM (inactive)	> 100 µM (inactive)	> 100 µM (inactive)	65 µM (inactive)	> 100 µM (inactive)	> 100 µM (inactive)	> 100 µM (inactive)	13.3 µM (inactive)	> 100 µM (inactive)	> 100 µM (inactive)	45.4 µM (inactive)	> 100 µM (inactive)	> 100 µM (inactive)
CN1CCN(c2cc3nc4cc(O)cc(O)c4c(O)c3cc2N)CC1	10.6 µM (inactive)	17.7 µM (inactive)	37.1 µM (inactive)	21.9 µM (inactive)	23.2 µM (inactive)	61 µM (inactive)	23.3 µM (inactive)	20.7 µM (inactive)	32.7 µM (inactive)	6.14 µM (inactive)	1.57 µM (inactive)	28.6 µM (inactive)	21.6 µM (inactive)	14 µM (inactive)	15.9 µM (inactive)	0.33 µM (active)	13.4 µM (inactive)	19.4 µM (inactive)	16.2 µM (inactive)	1.53 µM (inactive)
CN(C)CCNC(=O)c1cccc2nc3cccc(F)c3nc12	1.22 µM (inactive)	1.48 µM (inactive)	2.21 µM (inactive)	0.65 µM (active)	0.867 µM (active)	0.53 µM (active)	0.973 µM (active)	1.99 µM (inactive)	1.52 µM (inactive)	0.57 µM (active)	2.88 µM (inactive)	2.23 µM (inactive)	1.91 µM (inactive)	0.317 µM (active)	2.31 µM (inactive)	0.366 µM (active)	1.11 µM (active)	2.16 µM (inactive)	0.614 µM (active)	1.32 µM (inactive)
Cc1ccc(-c2cn3c(nc4ccccc43)c(C)n2)cc1	8.93 µM (inactive)	0.578 µM (active)	66.2 µM (inactive)	> 100 µM (inactive)	24.4 µM (inactive)	55.1 µM (inactive)	> 100 µM (inactive)	48 µM (inactive)	> 58.1 µM (inactive)	21.5 µM (inactive)	23.5 µM (inactive)	25.9 µM (inactive)	19.8 µM (inactive)	49.9 µM (inactive)	> 46.6 µM (inactive)	43.7 µM (inactive)	85.3 µM (inactive)	> 54 µM (inactive)	71.6 µM (inactive)	> 94.6 µM (inactive)
O=C(O)C(=Cc1ccnc2ccccc12)C(=O)O	> 100 µM (inactive)	> 100 µM (inactive)	> 100 µM (inactive)	> 100 µM (inactive)	> 100 µM (inactive)	> 100 µM (inactive)	> 100 µM (inactive)	> 100 µM (inactive)	> 100 µM (inactive)	> 100 µM (inactive)	> 100 µM (inactive)	> 100 µM (inactive)	> 100 µM (inactive)	> 100 µM (inactive)	> 100 µM (inactive)	> 100 µM (inactive)	> 100 µM (inactive)	> 100 µM (inactive)	> 100 µM (inactive)	> 100 µM (inactive)
O=C1C(Cl)=C(Cl)C(=O)N1c1ccc(F)cc1 [FLUOROIMIDE]	17.6 µM (inactive)	20.7 µM (inactive)	> 58.3 µM (inactive)	16.9 µM (inactive)	22.5 µM (inactive)	97.9 µM (inactive)	13.7 µM (inactive)	17.5 µM (inactive)	> 53.2 µM (inactive)	6.98 µM (inactive)	14.7 µM (inactive)	16.5 µM (inactive)	> 100 µM (inactive)	14.4 µM (inactive)	28.8 µM (inactive)	6.22 µM (inactive)	2.75 µM (inactive)	21.4 µM (inactive)	16.5 µM (inactive)	17.1 µM (inactive)
CN(C)c1ccc(/C=C2\N=C(c3ccccc3)N(/N=C3\C(=O)Nc4ccccc43)C2=O)cc1	16.9 µM (inactive)	35.8 µM (inactive)	> 100 µM (inactive)	65 µM (inactive)	53.8 µM (inactive)	74.1 µM (inactive)	35.9 µM (inactive)	16.8 µM (inactive)	69.8 µM (inactive)	27 µM (inactive)	> 100 µM (inactive)	> 100 µM (inactive)	73.6 µM (inactive)	30.2 µM (inactive)	39.6 µM (inactive)	32 µM (inactive)	37.2 µM (inactive)	27 µM (inactive)	28.8 µM (inactive)	92.5 µM (inactive)
Cn1c(-c2ccccc2)cc(-c2ccsc2)c1-c1ccsc1	> 100 µM (inactive)	> 100 µM (inactive)	17.2 µM (inactive)	> 100 µM (inactive)	67.3 µM (inactive)	> 100 µM (inactive)	> 100 µM (inactive)	34.3 µM (inactive)	> 100 µM (inactive)	9.66 µM (inactive)	> 100 µM (inactive)	> 100 µM (inactive)	> 100 µM (inactive)	> 100 µM (inactive)	> 100 µM (inactive)	> 100 µM (inactive)	50 µM (inactive)	> 100 µM (inactive)	> 100 µM (inactive)	> 100 µM (inactive)
CCSc1nc(N2CCCC2)s[s+]1.[O-][Cl+3]([O-])([O-])[O-]	64.7 µM (inactive)	0.167 µM (active)	> 100 µM (inactive)	34.4 µM (inactive)	0.582 µM (active)	18.9 µM (inactive)	43 µM (inactive)	3.58 µM (inactive)	54.6 µM (inactive)	1.04 µM (active)	0.684 µM (active)	33 µM (inactive)	6.75 µM (inactive)	2.23 µM (inactive)	40.2 µM (inactive)	3.29 µM (inactive)	0.764 µM (active)	67.3 µM (inactive)	19.1 µM (inactive)	44.6 µM (inactive)
COc1cc(C2SCC(=O)N2c2ccc(Cl)cc2)cc(OC)c1OC (centres undefined)	> 49.1 µM (inactive)	5.22 µM (inactive)	> 100 µM (inactive)	19 µM (inactive)	–	> 100 µM (inactive)	10.4 µM (inactive)	22.2 µM (inactive)	4.95 µM (inactive)	1.12 µM (active)	< 0.0205 µM (active)	20.2 µM (inactive)	> 100 µM (inactive)	1.94 µM (inactive)	97.5 µM (inactive)	1.69 µM (inactive)	1.99 µM (inactive)	3.15 µM (inactive)	1.03 µM (active)	> 100 µM (inactive)
